Reference: BindingDB's records for doi:10.1074/jbc.M112.442335 (University of Notre Dame, 2013)

Biological target: T1, Coproheme decarboxylase (Staphylococcus aureus, UniProt Q2YS77)
T1 sequence (Q2YS77 whole entry): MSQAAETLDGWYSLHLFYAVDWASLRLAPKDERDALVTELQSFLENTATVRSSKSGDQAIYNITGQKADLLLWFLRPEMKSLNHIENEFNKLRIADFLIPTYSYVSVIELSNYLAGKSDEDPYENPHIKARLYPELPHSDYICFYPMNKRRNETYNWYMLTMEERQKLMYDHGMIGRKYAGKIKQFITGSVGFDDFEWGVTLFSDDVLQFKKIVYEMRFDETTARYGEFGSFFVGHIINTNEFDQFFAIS
Assay: Fluorescence Titration Assay
Conditions: pH 6.8
Method: Titrations using fluorescence spectroscopy were carried out on a Jobin Yvon Horiba FluoroMax-3 fluorimeter in scanning mode. Apo-HemQ (5 μM) was diluted in 0.1 M potassium phosphate buffer, pH 6.8, and titrated with stocks of heme (1 mM in0.1 M NaOH) and protoporphyrin IX (1 mM in DMSO) each diluted to 500 μM at 25 °C.

A Kd of 2210 nM was found for `C=Cc1c(C)c2cc3[nH]c(cc4nc(cc5nc(cc1[nH]2)C(C)=C5CCC(=O)O)C(CCC(=O)O)=C4C)c(C)c3C=C` in this work.
